In the supplement of paper PMC10883282:

Columns and labels:
Assay in all cases: relative viability vs DMSO control (72 h) (fraction); higher = more viable cells
[1] = tested on: A204
Method in brief: (§1)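 Sarcoma cell lines went into 384-well plates at densities chosen to reach 80–90% confluence. After 24 h, each well received 2.5 µl of serially diluted compound, with source plates running from 10 mM to 0.0002 mM, and the plates were kept 72 h at 37 °C, 5% CO2, alongside 0.1% DMSO vehicle and a 5 µM positive control. Relative viability was derived from ATPLite readings as percent growth and averaged over up to triplicate wells. The data were then rescaled so that 1 stands for full and 0 for none.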

[2] = tested on: HS729
Method in brief: as §1

[3] = tested on: KHOS-240S
Method in brief: as §1

[4] = tested on: SW982
Method in brief: as §1

[5] = tested on: SYO-1
Method in brief: as §1

CC(C)(C)c1nc(-c2cccc(NS(=O)(=O)c3c(F)cccc3F)c2F)c(-c2ccnc(N)n2)s1 [Dabrafenib]
relative viability
Settings	[1]	[2]	[3]	[4]	[5]
0.00017 µM	1	0.958	1.07	1	0.985
0.00051 µM	1.04	0.949	1.06	0.988	0.9278
0.00152 µM	1.04	0.867	1.04	0.974	0.926
0.00457 µM	1.04	0.85	1.03	0.886	0.911
0.01372 µM	1.05	0.84	1.01	0.85	0.92
0.04115 µM	0.978	0.844	1	0.779	0.919
0.1235 µM	0.938	0.774	1.03	0.701	0.898
0.3704 µM	0.843	0.659	1.01	0.469	0.939
1.111 µM	0.76	0.63	0.975	0.384	0.857
3.333 µM	0.69	0.683	0.964	0.369	0.871
10 µM	0.614	0.811	0.854	0.356	0.816

CCc1cnn2c(NCc3ccc[n+]([O-])c3)cc(N3CCCC[C@H]3CCO)nc12 [Dinaciclib]
relative viability
Settings	[1]	[2]	[3]	[4]	[5]
0.00017 µM	0.998	1.05	0.954	0.9568	0.982
0.00051 µM	1.02	1.08	0.976	0.98	0.998
0.00152 µM	0.9831	1.09	0.966	0.984	0.982
0.00457 µM	0.913	1.06	0.913	0.962	0.908
0.01372 µM	0.482	1.03	0.45	0.566	0.28
0.04115 µM	0.247	0.396	0.214	0.223	0.248
0.1235 µM	0.235	0.378	0.207	0.239	0.256
0.3704 µM	0.199	0.397	0.21	0.269	0.294
1.111 µM	0.187	0.386	0.218	0.267	0.288
3.333 µM	0.179	0.371	0.213	0.25	0.295
10 µM	0.18	0.332	0.181	0.227	0.305

C[C@H](Nc1ncnc2nc[nH]c12)c1cc2cccc(Cl)c2c(=O)n1-c1ccccc1 [Duvelisib]
relative viability
Settings	[1]	[2]	[3]	[4]	[5]
0.00017 µM	1.1	1.06	1.05	1.04	1.03
0.00051 µM	1.09	1.09	1.11	1.08	1.01
0.00152 µM	1.07	1.03	1.08	1.09	0.994
0.00457 µM	1.096	1.03	1.09	1.06	0.995
0.01372 µM	1.08	1	1.06	1.08	0.9906
0.04115 µM	1.06	0.987	1.04	1.04	1.01
0.1235 µM	1.01	1.02	1.05	1	0.925
0.3704 µM	0.908	0.891	1.02	0.952	0.911
1.111 µM	0.761	0.863	0.952	0.891	0.841
3.333 µM	0.555	0.726	0.9	0.771	0.797
10 µM	0.445	0.606	0.777	0.623	0.688

CC1(C)CC=C(c2nc(C3CC(C)(C)OC(C)(C)C3)ccc2NC(=O)c2nc(C#N)c[nH]2)CC1 [Edicotinib]
relative viability
Settings	[1]	[2]	[3]	[4]	[5]
0.00017 µM	1.08	1	1.03	1.05	0.931
0.00051 µM	1.06	0.931	1.01	1.04	0.925
0.00152 µM	1.06	0.953	1.02	1.07	0.919
0.00457 µM	1.05	0.909	1.05	1.07	0.96
0.01372 µM	1.08	0.89	1.01	1.08	0.963
0.04115 µM	1.06	0.902	1.05	1.064	0.94
0.1235 µM	1.03	0.924	1.05	1.05	0.961
0.3704 µM	1.05	0.9	1.05	1.066	1.01
1.111 µM	1.04	0.894	1.118	1.07	1.03
3.333 µM	1.07	0.933	1.06	1.07	0.981
10 µM	1.08	0.999	0.841	1.07	1.04

CC(C)(O)CNc1nc(Nc2ccnc(C(F)(F)F)c2)nc(-c2cccc(C(F)(F)F)n2)n1 [Enasidenib]
relative viability
Settings	[1]	[2]	[3]	[4]	[5]
0.00017 µM	1.12	0.966	1.08	1.04	0.969
0.00051 µM	1.08	0.974	1.06	1.04	0.959
0.00152 µM	1.11	0.995	1.053	1.05	0.987
0.00457 µM	1.08	1	1.06	1.06	0.982
0.01372 µM	1.1	1.002	1.08	1.05	0.973
0.04115 µM	1.11	0.985	1.073	1.06	0.992
0.1235 µM	1.1	1.02	1.09	1.06	0.996
0.3704 µM	1.11	0.941	1.09	1.102	0.979
1.111 µM	1.11	0.994	1.09	1.129	0.624
3.333 µM	0.99	1.01	1.081	1.18	0.968
10 µM	0.7231	0.928	0.989	1.22	0.828

COC(=O)N[C@@H](C)CNc1nccc(-c2cn(C(C)C)nc2-c2cc(Cl)cc(NS(C)(=O)=O)c2F)n1 [Encorafenib]
relative viability
Settings	[1]	[2]	[3]	[4]	[5]
0.00017 µM	0.99	1.069	0.998	0.94	0.988
0.00051 µM	0.991	1.077	0.986	0.946	0.992
0.00152 µM	1	1.07	1.01	0.887	0.972
0.00457 µM	0.982	0.993	0.993	0.877	0.985
0.01372 µM	0.973	0.994	0.964	0.853	1.003
0.04115 µM	0.988	0.995	0.981	0.828	0.997
0.1235 µM	1	1.04	0.991	0.798	1.018
0.3704 µM	0.96	0.975	0.97	0.704	1.02
1.111 µM	0.838	0.821	0.904	0.489	0.988
3.333 µM	0.602	0.69	0.788	0.327	0.877
10 µM	0.574	0.719	0.732	0.308	0.818

CN1CCN(c2ccc(C(=O)Nc3n[nH]c4ccc(Cc5cc(F)cc(F)c5)cc34)c(NC3CCOCC3)c2)CC1 [Entrectinib]
relative viability
Settings	[1]	[2]	[3]	[4]	[5]
0.00017 µM	1.05	1.06	1.06	1.03	1.03
0.00051 µM	1.06	0.975	1.061	1.05	0.998
0.00152 µM	1.04	0.931	1.1	1.05	1.02
0.00457 µM	1.06	0.948	1.08	1.07	0.953
0.01372 µM	1.09	0.946	1.08	1.05	0.979
0.04115 µM	1.04	0.959	1.07	1.06	0.948
0.1235 µM	1.02	0.925	1.08	1.06	0.925
0.3704 µM	1.05	0.919	1	0.991	0.851
1.111 µM	1.04	0.832	0.939	0.865	0.765
3.333 µM	0.865	0.665	0.617	0.548	0.529
10 µM	0.228	0.382	0.0159	0.0591	-0.0142

Cn1cc(C2=C(c3cn(C4CCN(Cc5ccccn5)CC4)c4ccccc34)C(=O)NC2=O)c2ccccc21 [Enzastaurin]
relative viability
Settings	[1]	[2]	[3]	[4]	[5]
0.00017 µM	1.07	1.06	1.06	1.06	1.04
0.00051 µM	1.13	1.09	1.1	1.06	1.016
0.00152 µM	1.13	1.07	1.08	1.08	0.999
0.00457 µM	1.12	1.07	1.09	1.08	0.9983
0.01372 µM	1.11	1.05	1.1	1.08	0.971
0.04115 µM	1.07	1.05	1.09	1.069	0.989
0.1235 µM	1.07	1.01	1.07	1.05	0.959
0.3704 µM	1.1	1.02	1.08	1.06	0.983
1.111 µM	1.09	1.06	1.08	1.012	1.01
3.333 µM	1.08	1.13	1.01	0.903	0.96
10 µM	0.906	1.15	0.732	0.679	0.929
